Assay results taken from patent publication US20070049593A1 (priority 2004, published 2007).
Where a name gives a salt, the structure may show the parent alone.

These compounds were tested against T1, HCV polymerase (Hepatitis C virus genotype 1b, UniProt P26663) (assay: biochemical).
T1 construct: a region encoding NS5B (J Virol 1991 March, 65(3), 1105-13, 544 amino acids after deletion of 47 amino acids on the C-terminal); 6xHis (C); made in house; host or cells: Escherichia coli
T1 sequence (P26663 2420-2963): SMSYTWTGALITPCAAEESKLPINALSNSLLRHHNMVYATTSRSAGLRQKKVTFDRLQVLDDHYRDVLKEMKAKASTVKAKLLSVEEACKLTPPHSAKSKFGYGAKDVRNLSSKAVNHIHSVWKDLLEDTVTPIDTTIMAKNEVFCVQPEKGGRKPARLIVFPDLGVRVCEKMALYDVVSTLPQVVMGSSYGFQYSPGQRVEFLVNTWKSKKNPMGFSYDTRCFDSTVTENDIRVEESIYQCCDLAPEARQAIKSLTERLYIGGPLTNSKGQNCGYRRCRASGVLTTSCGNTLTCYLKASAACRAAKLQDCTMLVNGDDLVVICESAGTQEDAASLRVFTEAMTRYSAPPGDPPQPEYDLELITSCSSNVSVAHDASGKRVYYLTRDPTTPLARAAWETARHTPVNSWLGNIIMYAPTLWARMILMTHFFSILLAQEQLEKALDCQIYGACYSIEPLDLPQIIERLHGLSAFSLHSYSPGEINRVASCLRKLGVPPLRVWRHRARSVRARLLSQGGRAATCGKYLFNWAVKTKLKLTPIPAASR
Design: species or system HCV BK strain
Outline: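 His-tagged NS5B (BK strain, 47-aa C-terminal deletion, E. coli-expressed) at 0.5 μg/ml copied 5 μg/ml run-off RNA bearing the HCV 3′ UTR with 2 μM UTP plus [3H]UTP, 50 μM ATP/GTP, in pH 7.5 Tris with 5 mM MgCl2, 25 °C, 90 min. TCA-precipitated RNA was counted and IC50 calculated.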
`CN(C)CCN1CCn2c(c(C3CCCCC3)c3ccc(C(=O)O)cc32)-c2ccc(OCc3ccc(Cl)s3)cc21` [Example 1-560, 3-(5-chlorothiophen-2-ylmethoxy)-13-cyclohexyl-5-(2-dimethylaminoethyl)-6,7-dihydro-5H-benzo[5,6][1,4]diazepino[7,1-a]indole-10-carboxylic acid dihydrochloride] was tested, and the IC50 was < 100 nM.
With `Cc1ccc2c(c1)N(CCN1CCSCC1)CCn1c-2c(C2CCCCC2)c2ccc(C(=O)O)cc21` [Example 1-561, 13-cyclohexyl-3-methyl-5-[2-(thiomorpholin-4-yl)ethyl]-6,7-dihydro-5H-benzo[5,6][1,4]diazepino[7,1-a]indole-10-carboxylic acid dihydrochloride] the IC50 was < 100 nM.
In the case of `Cc1ccc2c(c1)N(C1CCNCC1)CCn1c-2c(C2CCCCC2)c2ccc(C(=O)O)cc21` [Example 1-562, 13-cyclohexyl-3-methyl-5-(piperidin-4-yl)-6,7-dihydro-5H-benzo[5,6][1,4]diazepino[7,1-a]indole-10-carboxylic acid dihydrochloride], the IC50 is reported as < 100 nM.
In the case of `CC(=O)N1CCC(N2CCn3c(c(C4CCCCC4)c4ccc(C(=O)O)cc43)-c3ccc(C)cc32)CC1` [Example 1-563, 5-(1-acetylpiperidin-4-yl)-13-cyclohexyl-3-methyl-6,7-dihydro-5H-benzo[5,6][1,4]diazepino[7,1-a]indole-10-carboxylic acid], the IC50 is reported as < 100 nM.
`Cc1ccc2c(c1)N(C1CCN(C)CC1)CCn1c-2c(C2CCCCC2)c2ccc(C(=O)O)cc21` [Example 1-564, 13-cyclohexyl-3-methyl-5-(1-methylpiperidin-4-yl)-6,7-dihydro-5H-benzo[5,6][1,4]diazepino[7,1-a]indole-10-carboxylic acid dihydrochloride] was tested, and the IC50 was < 100 nM.
With `CN(C)CCN1CCn2c(c(C3CCCCC3)c3ccc(C(=O)O)cc32)-c2ccc(OCc3ccncc3)cc21` [Example 1-565, 13-cyclohexyl-5-(2-dimethylaminoethyl)-3-(pyridin-4-ylmethoxy)-6,7-dihydro-5H-benzo[5,6][1,4]diazepino[7,1-a]indole-10-carboxylic acid trihydrochloride] the IC50 was < 100 nM.
With `Cc1ccc2c(c1)N(CCN1CCC[C@@H](CCN3CCCC3=O)C1)CCn1c-2c(C2CCCCC2)c2ccc(C(=O)O)cc21` [Example 1-566, 13-cyclohexyl-3-methyl-5-(2-{(S)-3-[2-(2-oxopyrrolidin-1-yl)ethyl]piperidin-1-yl]ethyl}-6,7-dihydro-5H-benzo[5,6][1,4]diazepino[7,1-a]indole-10-carboxylic acid dihydrochloride] the IC50 was < 100 nM.
With `Cc1ccc2c(c1)N(C)C(C)Cn1c-2c(C2CCCCC2)c2ccc(C(=O)O)cc21` (centres unmarked) [Example 1-567, 13-cyclohexyl-3,5,6-trimethyl-6,7-dihydro-5H-benzo[5,6][1,4]diazepino[7,1-a]indole-10-carboxylic acid] the IC50 was < 100 nM.
With `COc1ccc2c(c1)N(CCN1CCSCC1)CCn1c-2c(C2CCCCC2)c2ccc(C(=O)O)cc21` [Example 1-568, 13-cyclohexyl-3-methoxy-5-[2-(thiomorpholin-4-yl)ethyl]-6,7-dihydro-5H-benzo[5,6][1,4]diazepino[7,1-a]indole-10-carboxylic acid dihydrochloride] the IC50 was < 100 nM.
Work on `Cc1ccc2c(c1)N(C)CCn1c-2c(C2CCCCC2)c2ccc(C(=O)O)c(C)c21` [Example 1-569, 13-cyclohexyl-3,5,9-trimethyl-6,7-dihydro-5H-benzo[5,6][1,4]diazepino[7,1-a]indole-10-carboxylic acid] yielded an IC50 of 100 to 1000 nM.
With `COCC[C@@H]1CCCN(C(=O)CN2CCn3c(c(C4CCCCC4)c4ccc(C(=O)O)cc43)-c3ccc(C)cc32)C1` [Example 1-570, 13-cyclohexyl-5-{2-[(S)-3-(2-methoxyethyl)piperidin-1-yl]-2-oxoethyl}-3-methyl-6,7-dihydro-5H-benzo[5,6][1,4]diazepino[7,1-a]indole-10-carboxylic acid] the IC50 was < 100 nM.
With `Cc1ccc2c(c1)N(CC(=O)N1CCN(S(C)(=O)=O)CC1)CCn1c-2c(C2CCCCC2)c2ccc(C(=O)O)cc21` [Example 1-571, 13-cyclohexyl-5-[2-(4-methanesulfonylpiperazin-1-yl)-2-oxoethyl]-3-methyl-6,7-dihydro-5H-benzo[5,6][1,4]diazepino[7,1-a]indole-10-carboxylic acid] the IC50 was < 100 nM.
In the case of `COC1CCN(C(=O)CN2CCn3c(c(C4CCCCC4)c4ccc(C(=O)O)cc43)-c3ccc(C)cc32)CC1` [Example 1-572, 13-cyclohexyl-5-[2-(4-methoxypiperidin-1-yl)-2-oxoethyl]-3-methyl-6,7-dihydro-5H-benzo[5,6][1,4]diazepino[7,1-a]indole-10-carboxylic acid], the IC50 is reported as < 100 nM.
With `CNC(=O)c1ccc2c(C3CCCCC3)c3n(c2c1)CCN(CC(=O)N1CCN(S(C)(=O)=O)CC1)c1cc(C)ccc1-3` [Example 1-573, N-methyl-13-cyclohexyl-5-[2-(4-methanesulfonylpiperazin-1-yl)-2-oxoethyl]-3-methyl-6,7-dihydro-5H-benzo[5,6][1,4]diazepino[7,1-a]indole-10-carboxamide] the IC50 was < 100 nM.
In the case of `Cc1ccc2c(c1)N(C)CCn1c-2c(C2CCCCC2)c2ccc(C(=O)O)cc21` [Example 1-574, 13-cyclohexyl-3,5-dimethyl-6,7-dihydro-5H-benzo[5,6][1,4]diazepino[7,1-a]indole-10-carboxylic acid], the IC50 is reported as < 100 nM.
With `CN(C)CCN1CCn2c(c(C3CCCCC3)c3ccc(C(=O)O)cc32)-c2ccc(OCCN3CCOC3=O)cc21` [Example 1-575, 13-cyclohexyl-5-(2-dimethylaminoethyl)-3-[2-(2-oxooxazolidin-3-yl)ethoxy]-6,7-dihydro-5H-benzo[5,6][1,4]diazepino[7,1-a]indole-10-carboxylic acid dihydrochloride] the IC50 was < 100 nM.
With `CN(C)CCN1CCn2c(c(C3CCCCC3)c3ccc(C(=O)O)cc32)-c2ccc(OCCNCCO)cc21` [Example 1-576, 13-cyclohexyl-5-(2-dimethylaminoethyl)-3-[2-(2-hydroxyethylamino)ethoxy]-6,7-dihydro-5H-benzo[5,6][1,4]diazepino[7,1-a]indole-10-carboxylic acid trihydrochloride] the IC50 was < 100 nM.
With `COc1cccc(COc2ccc3c(c2)N(CCN(C)C)CCn2c-3c(C3CCCCC3)c3ccc(C(=O)O)cc32)c1` [Example 1-577, 13-cyclohexyl-5-(2-dimethylaminoethyl)-3-(3-methoxybenzyloxy)-6,7-dihydro-5H-benzo[5,6][1,4]diazepino[7,1-a]indole-10-carboxylic acid dihydrochloride] the IC50 was < 100 nM.
In the case of `CN(C)CCN1CCn2c(c(C3CCCCC3)c3ccc(C(=O)O)cc32)-c2ccc(OCc3cccc(N)c3)cc21` [Example 1-578, 3-(3-aminobenzyloxy)-13-cyclohexyl-5-(2-dimethylaminoethyl)-6,7-dihydro-5H-benzo[5,6][1,4]diazepino[7,1-a]indole-10-carboxylic acid trihydrochloride], the IC50 is reported as < 100 nM.
For `CN(C)CCN1CCn2c(c(C3CCCCC3)c3ccc(C(=O)O)cc32)-c2ccc(OCc3cccc([N+](=O)[O-])c3)cc21` [Example 1-579, 13-cyclohexyl-5-(2-dimethylaminoethyl)-3-(3-nitrobenzyloxy)-6,7-dihydro-5H-benzo[5,6][1,4]diazepino[7,1-a]indole-10-carboxylic acid dihydrochloride], the IC50 was < 100 nM.
With `COC(=O)N1CCC(CCN2CCn3c(c(C4CCCCC4)c4ccc(C(=O)O)cc43)-c3ccc(Cl)cc32)CC1` [Example 1-580, 3-chloro-13-cyclohexyl-5-[2-(1-methoxycarbonylpiperidin-4-yl)ethyl]-6,7-dihydro-5H-benzo[5,6][1,4]diazepino[7,1-a]indole-10-carboxylic acid] the IC50 was < 100 nM.
For `Cc1ccc2c(c1)N(CCc1ccc(F)cc1)CCn1c-2c(C2CCCCC2)c2ccc(C(=O)O)cc21` [Example 1-581, 13-cyclohexyl-5-[2-(4-fluorophenyl)ethyl]-3-methyl-6,7-dihydro-5H-benzo[5,6][1,4]diazepino[7,1-a]indole-10-carboxylic acid], the IC50 was < 100 nM.
In the case of `CC(=O)Nc1cccc(COc2ccc3c(c2)N(CCN(C)C)CCn2c-3c(C3CCCCC3)c3ccc(C(=O)O)cc32)c1` [Example 1-582, 3-(3-acetylaminobenzyloxy)-13-cyclohexyl-5-(2-dimethylaminoethyl)-6,7-dihydro-5H-benzo[5,6][1,4]diazepino[7,1-a]indole-10-carboxylic acid dihydrochloride], the IC50 is reported as < 100 nM.
With `COC(=O)c1ccc2c(C3CCCCC3)c3n(c2c1)CCN(CCN(C)C)c1cc(OCc2cccc(C(=O)O)c2)ccc1-3` [Example 1-583, methyl 3-(3-carboxybenzyloxy)-13-cyclohexyl-5-(2-dimethylaminoethyl)-6,7-dihydro-5H-benzo[5,6][1,4]diazepino[7,1-a]indole-10-carboxylate dihydrochloride] the IC50 was 100 to 1000 nM.
For `CN(C)CCN1CCn2c(c(C3CCCCC3)c3ccc(C(=O)O)cc32)-c2ccc(OCCCN3CCCCC3)cc21` [Example 1-584, 13-cyclohexyl-5-(2-dimethylaminoethyl)-3-[3-(piperidin-1-yl)propoxy]-6,7-dihydro-5H-benzo[5,6][1,4]diazepino[7,1-a]indole-10-carboxylic acid trihydrochloride], the IC50 was < 100 nM.
With `CN(C)CCN1CCn2c(c(C3CCCCC3)c3ccc(C(=O)O)cc32)-c2ccc(OCc3cccc(N4CCCC4=O)c3)cc21` [Example 1-585, 13-cyclohexyl-5-(2-dimethylaminoethyl)-3-[3-(2-oxopyrrolidin-1-yl)benzyloxy]-6,7-dihydro-5H-benzo[5,6][1,4]diazepino[7,1-a]indole-10-carboxylic acid trihydrochloride] the IC50 was < 100 nM.
